Experimental findings from patent publication US7521454B2 (Dainippon Sumitomo Pharma Co., Ltd., priority 2001, dated 2009) are described below.

The test system of one data set is mouse spleen cell. The experiment in a line: cells. Format: cell-based. To be noted: for minimal effective concentration: Mus musculus, 24 h, read-out: Interferon-inducing activity: Minimum effective concentration.
A further data set has as its system Balb/c male mouse. Description: Interferon-inducing activity in mouse (in vivo), serum interferon titer after oral dosing.
Data set [1] concerns human peripheral blood mononuclear cells (PBMC). Description: Interferon-inducing activity in human peripheral blood mononuclear cells (PBMC), IFN-α ELISA.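 Also: IFN-α in pg/ml with a 1.25 pg/ml detection limit.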 Particulars: 24 h. Format: cell-based. The procedure:
Peripheral bloods were sampled from 5 healthy volunteers using a syringe containing heparin, and peripheral blood mononuclear cells (PBMC) were prepared by density gradient centrifugation utilizing the Lymphoprep™ (NYCOMED PHARMA AS). PBMCs were washed twice in serum-free RPMI 1640 medium and adjusted at 1×10^6 cells/ml in RPMI 1640 medium comprising 10% fetal bovine serum. The product was cultured in the presence of a test compound dissolved in dimethyl sulfoxide (final concentration: 0.1%) in an incubator in the presence of 5% CO^2 at 37° C. for 24 hours. As a control, 0.1% dimethyl sulfoxide containing no test compound was used. The culture supernatant was aseptically collected by filtration. Thereafter, the supernatant was cryopreserved at −20° C. or lower until it was subjected to the assay for IFN-inducing activity. Human IFN-α in the culture supernatant was quantified using a highly sensitive ELISA system (Amersham).
In general terms: An ELISA detects its analyte on a solid surface through an enzyme-linked reagent.

Another data set deals with IL-4 production. Description: Inhibitory activity against Th2 cytokine produced from sensitized spleen cells: IL-4. Format: cell-based, mouse. To be noted: OVA-sensitized BALB/c spleen cells, 3 days; for activity at 0.001 µM / activity at 0.01 µM / activity at 0.1 µM: Mus musculus, 72 h, read-out: Inhibitory activity against IL-4 production. The procedure: (§1) A 7-week-old BALB/c mouse was immunized intraperitoneally with aluminum hydroxide gel (4 mg, 100 μl) having 10 μg of ovalbumin adsorbed thereon, and it was subjected to additional immunization with the same agent 14 days later. Seven days thereafter, spleen was taken out, and suspended in RPMI-1640 comprising inactivated fetal bovine serum (10%), 2-mercaptoethanol ([…]), penicillin G (100 U/ml), and streptomycin (100 μg/ml). Thus, a splenic cell suspension was prepared. Ovalbumin (0.5 mg/ml) and a test compound were added to a splenic cell suspension (5×10^6 cell/200 μl/well), and the resultant was cultured at 37° C. in the presence of 5% CO2 for 3 days. The cytokine level in the culture supernatant was quantified by ELISA. IFN-γ and IL-4 were assayed using a kit available from Amersham, and IL-5 was assayed using a kit available from Endogen.

Another data set deals with IL-5 production. Description: Inhibitory activity against Th2 cytokine produced from sensitized spleen cells: IL-5. Format: cell-based, mouse. To be noted: OVA-sensitized BALB/c spleen cells, 3 days; for activity at 0.001 µM / activity at 0.01 µM / activity at 0.1 µM: Mus musculus, 72 h, read-out: Inhibitory activity against IL-5 production. How it is done:
as §1

The nature of data set [2]: Gastrointestinal absorption in rat (drug level in blood by HPLC). In kind it is in vivo. To be noted: SD male rat. How it is done:
A test compound was suspended in an aqueous solution of 0.5% carboxymethylcellulose, and the resulting suspension was orally administered to an SD male rat. Blood was sampled with the elapse of time, and the level of the drug in blood was assayed by HPLC.

The subject of data set [3] is male cynomolgus monkeys. To be noted: po, 10 mg/kg, 4 h.
Data set [4] can be described thus: Solubility in citric acid/disodium phosphate buffers. To be noted: citric acid/disodium phosphate buffer, thermodynamic from solid.
Protocol: 5.53% citric acid (monohydrate) and 1.75% disodium phosphate (anhydrous) were mixed together to prepare buffers (pH 2.5, 5.5, 7.4). A compound was added thereto, the mixture was stirred in a vortex mixer and subjected to ultrasonication for 30 minutes. Thereafter, the resultant was stirred in a vortex mixer again and then centrifuged at 15,000 rpm for 20 minutes. The levels of the compounds in the supernatants were then quantified by HPLC.
In data set [5] the test system is rat model of eosinophil leukocytic infiltration. Description: Rat model of eosinophil leukocytic infiltration (OVA, bronchoalveolar lavage). Format: in vivo. To be noted: 0.01 mg/kg intratracheal, 2.5 hours before induction, lavage 24 hours after. The procedure:
A rat was immunized intraperitoneally with 1 ml of a solution containing 1 mg of ovalbumin (OVA) and 100 mg of Al(OH)3 on day 0 and day 7. On day 14, a 1% OVA solution was sprayed for 15 minutes using a ultrasonic nebulizer to induce reactions. A test compound was administered intratracheally 2.5 hours before the induction. Bronchoalveolar lavage was performed 24 hours after the induction, and eosinocytes in the wash was stained with Hinkelman to count the number of stained cells. Sensi.−/Challe.+, CMC-Na, and Fluticasone were used as controls. FIG. 1 and the following table show the results.

The test system of data set [6] is male cynomolgus monkeys. The experiment in a line: Interferon-inducing activity in cynomolgus monkey (in vivo), serum interferon titer and vomition. Particulars: 10 mg/kg oral.
[7] abbreviates: blood, dose 3 mg/kg oral, read-out: Cmax.
The mark [8] stands for this setting: blood, dose 3 mg/kg oral, read-out: Tmax.

Converted amounts (≈) assume the structure as drawn. Where two headings read alike, the source gives them in different places. Some results are limits rather than exact numbers.

By Cmax is commonly meant the peak of the concentration-time curve. A word on the Tmax: it is the time at which the peak concentration occurs. For the compound “1-(2-hydroxy-2-methylpropyl)-2-methoxyethyl-1H-imidazo[4,5-c]quinoline-4-amine [Comparative Example 2, reference compound]”, the “Interferon-inducing activity: Minimum effective concentration” value with mouse spleen cell was found to be 3 nM. For the same compound, the Interferon-inducing activity with Balb/c male mouse (dosage 0.1 mg/kg oral, serum 2 h after dosing, Balb/c mouse) worked out at 1638 ± 246 U/ml; in the data set on Balb/c male mouse (dosage 0.3 mg/kg oral, serum 2 h after dosing, Balb/c mouse) it was 1961 ± 950 U/ml. In addition, the “Interferon-inducing activity (human IFN-α in culture supernatant)” value in [1] (concentration 0.3 nM) was “— ((−) indicates a detection limit (1.25 pg/ml) or lower)”; in [1] (concentration 1 nM), “— ((−) indicates a detection limit (1.25 pg/ml) or lower)”; in [1] (concentration 3 nM) it was 6 ± 5 pg/mL. Also, the “Inhibitory activity against IL-4 production” value with IL-4 production (concentration 0.1 nM) is recorded as 90 % of control; in the data set on IL-4 production (concentration 1 nM) it was 24 % of control; in the data set on IL-4 production (concentration 10 nM), 1 % of control; in the data set with IL-4 production (concentration 100 nM), <1 % of control. Further, the “Inhibitory activity against IL-5 production” value in the data set on IL-5 production (concentration 0.1 nM) was 106 % of control; in the data set on IL-5 production (concentration 1 nM), 73 % of control; with IL-5 production (concentration 10 nM) it was 18 % of control; with IL-5 production (concentration 100 nM), 10 % of control. The Cmax amounted to 19 ng/mL in [2] (dose 3 mg/kg oral) and 15 ng/mL in [2] (dose 10 mg/kg oral). The figures for the Tmax in data set [2] (dose 3 mg/kg oral) and in data set [2] (dose 10 mg/kg oral) were 60 min and 30 min, respectively.

Take `CC(C)Cn1cnc2c(N)nc3ccccc3c21` [Comparative Example 1, Imiquimod, reference compound]: the minimal effective concentration in the data set with mouse spleen cell amounted to 0.3 µM. Besides, the activity at 0.001 µM in the data set on IL-4 production (concentration 1 nM) is 18%; in the data set on IL-5 production (concentration 1 nM), 54%. For the same compound, the activity at 0.01 µM was found to be 1% with IL-4 production (concentration 10 nM) and 15% in the data set with IL-5 production (concentration 10 nM). Also, the activity at 0.1 µM was under 1% with IL-4 production (concentration 100 nM) and 10% with IL-5 production (concentration 100 nM). In [2] (setting [7]), the peak concentration (Cmax) worked out at 90 ng/mL. For the same compound, the Tmax in [2] (setting [8]) was 30 min.

One may read the solubility as how much of the substance goes into solution per volume. In the case of `CCCCNc1nc(N)c2nc(O)n(Cc3ccc(OC)nc3)c2n1` [Example 19, 2-Butylamino-8-hydroxy-9-(6-methoxy-3-pyridylmethyl)adenine], in the data set on mouse spleen cell, the minimal effective concentration was determined as 0.003 µM. Also, the Interferon-inducing activity is 14 ± 5 U/ml in the data set on Balb/c male mouse (po, 0.01 mg/kg, 2 h); 199 ± 84 U/ml in the data set on Balb/c male mouse (po, 0.03 mg/kg, 2 h); 383 ± 122 U/ml in the data set on Balb/c male mouse (po, 0.1 mg/kg, 2 h); 601 ± 187 U/ml with Balb/c male mouse (po, 0.3 mg/kg, 2 h). Besides, the “Interferon-inducing activity (human IFN-α in culture supernatant)” value was determined as 5 ± 1 pg/mL in [1] (concentration 1 nM), 12 ± 11 pg/mL in data set [1] (concentration 3 nM), 48 ± 34 pg/mL in data set [1] (concentration 10 nM) and 60 ± 33 pg/mL in [1] (concentration 30 nM). Also, the activity at 0.001 µM in the data set on IL-4 production (concentration 1 nM) turned out to be 32%; with IL-5 production (concentration 1 nM), 83%. The activity at 0.01 µM in the data set on IL-4 production (concentration 10 nM) is under 1%; in the data set on IL-5 production (concentration 10 nM), 16%. The activity at 0.1 µM in the data set on IL-4 production (concentration 100 nM) was under 1%; in the data set with IL-5 production (concentration 100 nM), 13%. Moreover, the Cmax in [2] (setting [7]) came to 188 ng/mL. Moreover, the Tmax in data set [2] (setting [8]) was 240 min. Moreover, in the data set with male cynomolgus monkeys [3], the “interferon titer in blood serum (average±SE)” value is listed as 12,173±6619 U/ml. In addition, the solubility at 30 min amounted to 130 µg/mL (≈ 379 µM) in data set [4] (pH 2.5, aqueous buffer); 2 µg/mL (≈ 5.82 µM) in data set [4] (pH 5.5, aqueous buffer); 2 µg/mL (≈ 5.82 µM) in data set [4] (pH 7.4, aqueous buffer).

Take `C[C@@H]1C[C@H]2[C@@H]3C[C@H](F)C4=CC(=O)C=C[C@]4(C)[C@@]3(F)[C@@H](O)C[C@]2(C)[C@@]1(O)C(=O)SCF` [Fluticasone, reference compound]: in [5], the “eosinocytes in bronchoalveolar lavage, Average” value is 300.07 ×10^4 cells.

Take `CCCCOc1nc(N)c2nc(Br)n(Cc3ccc(Cl)nc3)c2n1` [Reference Example 2, 8-Bromo-2-butoxy-9-(6-chloro-3-pyridylmethyl)adenine]: the vomition observed in the data set with male cynomolgus monkeys [6] (cynomolgus monkeys) was 4 out of 5 samples. In the data set on male cynomolgus monkeys [6] (four hours after the administration, five male cynomolgus monkeys), the “interferon titer in blood serum (average±SE)” value was 18,305±5578 U/ml.
